Measured values reported in ChEMBL document CHEMBL5058564, “EUbOPEN Chemogenomics Library 2 (Incucyte)” (2022).

Experiments:
Format in all cases: toxicity, cell-based
[1] = tested on: HEK-293T; assay: Incucyte cell viability with HEK293T; conditions: human, 10 µM, compound concentration 10 uM
[2] = tested on: Fibroblast; assay: Incucyte cell viability with human fibroblast; conditions: 10 µM, compound concentration 10 uM
[3] = tested on: U2OS; assay: Incucyte cell viability with U2OS; conditions: human, 10 µM, compound concentration 10 uM
[4] = 0 h, replicate number 1, timepoint 0 hours
[5] = 0 h, replicate number 2, timepoint 0 hours
[6] = 6 h, replicate number 2, timepoint 6 hours
[7] = 6 h, replicate number 1, timepoint 6 hours
[8] = 12 h, replicate number 2, timepoint 12 hours
[9] = 18 h, replicate number 1, timepoint 18 hours
[10] = 24 h, replicate number 1, timepoint 24 hours
[11] = 24 h, replicate number 2, timepoint 24 hours
[12] = 12 h, replicate number 1, timepoint 12 hours
[13] = 18 h, replicate number 2, timepoint 18 hours
Note: unitless GR value; below 1 slowed growth and below 0 cell loss.

| SMILES | Growth Rate [1, 4] | Growth Rate [1, 5] | Growth Rate [1, 6] | Growth Rate [2, 5] | Growth Rate [2, 7] | Growth Rate [2, 6] | Growth Rate [2, 9] | Growth Rate [2, 10] | Growth Rate [3, 12] | Growth Rate [3, 8] | Growth Rate [3, 9] | Growth Rate [2, 4] | Growth Rate [3, 4] | Growth Rate [1, 8] | Growth Rate [3, 5] | Growth Rate [3, 13] | Growth Rate [3, 11] | Growth Rate [1, 12] | Growth Rate [1, 10] | Growth Rate [2, 12] | other results |
| --- | --- | --- | --- | --- | --- | --- | --- | --- | --- | --- | --- | --- | --- | --- | --- | --- | --- | --- | --- | --- | --- |
| CCOc1nc2cccc(C(=O)O)c2n1Cc1ccc(-c2ccccc2-c2nnn[nH]2)cc1 | 0.86 | 0.52 | 0.94 | 0.54 | 0.77 | 0.71 | 0.8 | 0.89 | 0.85 | 0.99 | 0.58 | – | – | – | – | – | – | – | – | – | Growth Rate [2, 8]: 0.56; Growth Rate [2, 11]: 0.45 |
| Cc1ccc(CNc2ncnc3ccc(-c4ccc(CO)o4)cc23)o1 | 0.47 | – | – | 0.65 | – | – | – | – | – | – | – | -0.65 | -0.73 | – | – | – | – | – | – | – | – |
| COCCn1c(C)c(C)s/c1=N\C(=O)C1C(C)(C)C1(C)C | 0.71 | – | 0.77 | 0.2 | – | – | – | – | – | – | 1 | 0.65 | 0.47 | 0.76 | -1 | 0.93 | 0.97 | – | – | – | Growth Rate [3, 10]: 0.98 |
| O=C1NC(Nc2ccccc2)=N/C1=C\c1ccc2c(c1)OCO2 | 0.84 | 0.94 | 0.13 | 0.56 | 0.26 | – | – | – | 0.12 | 0.66 | 0.39 | – | – | 0.51 | -1 | 0.59 | 0.63 | 0.75 | 0.82 | 0.74 | Growth Rate [1, 7]: 0.37; Growth Rate [1, 9]: 0.75; Growth Rate [1, 13]: 0.58; Growth Rate [1, 11]: 0.78; Growth Rate [3, 7]: -0.77; Growth Rate [3, 6]: 0.8; Growth Rate [3, 10]: 0.59 |
| COc1cccc2c1c(NS(=O)(=O)c1ccc(Cl)s1)nn2Cc1cccc(CNC(=O)C(C)(C)O)c1 | 0.52 | – | 0.95 | 0.35 | 0.17 | 0.5 | 0.35 | 0.53 | 0.99 | 0.98 | – | – | -0.39 | 0.47 | -1 | 0.83 | 0.89 | 0.98 | 0.38 | 0.41 | – |
| N#Cc1cc(F)cc(-c2nc(-c3ccc(F)cn3)no2)c1 | 0.85 | 0.21 | – | 0.68 | -0.02 | – | 0.84 | 0.6 | 0.46 | 0.86 | 0.57 | – | – | – | -0.87 | – | – | – | – | 0.63 | Growth Rate [3, 7]: -0.32; Growth Rate [3, 6]: 0.62; Growth Rate [3, 10]: 0.65 |
| COc1cc(N2CCN(C)CC2)ccc1Nc1nccc(-c2cn(C)c3cnccc23)n1 | -0.61 | -0.28 | – | -0.24 | – | – | – | – | – | – | – | -0.91 | 0.8 | – | -1 | – | 0.96 | – | – | – | Growth Rate [1, 11]: 0.95 |
| O=C1c2c(Br)c(Br)c(Br)c(Br)c2C(=O)N1c1ncc[nH]1 | 0.24 | 0.87 | 0.45 | 0.94 | – | 0.37 | 0.62 | 0.65 | – | 0.89 | 0.89 | -1 | – | – | -1 | 1 | – | 0.51 | 0.91 | 0.69 | Growth Rate [1, 9]: 0.67; Growth Rate [3, 7]: 0.46; Growth Rate [3, 10]: 0.98 |
| CCN1/C(=C/C(C)=O)Sc2ccc(OC(C)=O)cc21 | 0.98 | 0.37 | 0.44 | – | -0.38 | -0.29 | 0.17 | 0.38 | – | 0.89 | – | – | -0.53 | 0.41 | -1 | 0.97 | 0.93 | 0.29 | 0.49 | 0.14 | Growth Rate [1, 7]: 0.5; Growth Rate [1, 9]: 0.49; Growth Rate [1, 13]: 0.37; Growth Rate [1, 11]: 0.53; Growth Rate [2, 8]: 0.41 |
| CN(C)CCCc1cc(C(=O)Nc2ccc(-c3ccncc3)cc2)ccc1O.Cl.Cl | 0.52 | 0.49 | 0.48 | 0.18 | 0.34 | 0.16 | 0 | -0.07 | – | – | – | 0.85 | -0.09 | 0.93 | -0.87 | – | – | 0.69 | 0.67 | 0.34 | Growth Rate [1, 7]: 0.98; Growth Rate [1, 9]: 0.69; Growth Rate [1, 11]: 0.98; Growth Rate [2, 13]: 0.66; Growth Rate [2, 11]: 0.69 |
| COc1ccc2c(c1)C(C(=O)N(Cc1ccc(N(C)C)cc1)c1ccc(C(C)C)cc1)CCC2.Cl (stereo not given) | 0.39 | 0.72 | – | – | 0.76 | – | – | 0.93 | 0.93 | 0.84 | 0.73 | – | -0.58 | 0.46 | -1 | 0.81 | 0.79 | 0.27 | 0.52 | – | Growth Rate [1, 9]: 0.43; Growth Rate [1, 13]: 0.59; Growth Rate [1, 11]: 0.76; Growth Rate [3, 7]: 0.25 |
| COc1ccccc1N1CCN(C[C@@H](C(=O)NC(C)(C)C)c2ccccc2)CC1.Cl.Cl | 0.89 | – | 0.54 | 0.48 | 0.54 | 0.96 | 1 | 0.57 | – | – | 0.77 | – | – | 0.79 | -0.77 | 0.92 | 1 | – | – | 0.69 | Growth Rate [3, 7]: 0.29 |
| N[C@@]1(C(=O)O)CC[C@H]2[C@H](C(=O)O)[C@H]21 | 0.6 | 0.94 | – | 0.85 | 0.5 | – | 0.57 | 0.52 | 0.67 | 0.94 | 0.7 | -0.03 | – | – | -1 | 1 | 0.97 | – | – | 0.44 | Growth Rate [1, 11]: 0.86; Growth Rate [2, 8]: 0.63; Growth Rate [2, 13]: 0.79; Growth Rate [2, 11]: 0.35; Growth Rate [3, 7]: 0.86; Growth Rate [3, 6]: 0.76 |
